Results as given in paper PMC9186362, “Design and biological evaluation of substituted 5,7-dihydro-6H-indolo[2,3-c]quinolin-6-one as novel selective Haspin inhibitors” (Journal of Enzyme Inhibition and Medicinal Chemistry, 2022).

Tests used:
HsHaspin = target: T1, HsHaspin (Homo sapiens, UniProt Q8TF76); assay: ADP-Glo kinase assay; assay type: biochemical, Homo sapiens (Hs)
T1 sequence (Q8TF76 1-798): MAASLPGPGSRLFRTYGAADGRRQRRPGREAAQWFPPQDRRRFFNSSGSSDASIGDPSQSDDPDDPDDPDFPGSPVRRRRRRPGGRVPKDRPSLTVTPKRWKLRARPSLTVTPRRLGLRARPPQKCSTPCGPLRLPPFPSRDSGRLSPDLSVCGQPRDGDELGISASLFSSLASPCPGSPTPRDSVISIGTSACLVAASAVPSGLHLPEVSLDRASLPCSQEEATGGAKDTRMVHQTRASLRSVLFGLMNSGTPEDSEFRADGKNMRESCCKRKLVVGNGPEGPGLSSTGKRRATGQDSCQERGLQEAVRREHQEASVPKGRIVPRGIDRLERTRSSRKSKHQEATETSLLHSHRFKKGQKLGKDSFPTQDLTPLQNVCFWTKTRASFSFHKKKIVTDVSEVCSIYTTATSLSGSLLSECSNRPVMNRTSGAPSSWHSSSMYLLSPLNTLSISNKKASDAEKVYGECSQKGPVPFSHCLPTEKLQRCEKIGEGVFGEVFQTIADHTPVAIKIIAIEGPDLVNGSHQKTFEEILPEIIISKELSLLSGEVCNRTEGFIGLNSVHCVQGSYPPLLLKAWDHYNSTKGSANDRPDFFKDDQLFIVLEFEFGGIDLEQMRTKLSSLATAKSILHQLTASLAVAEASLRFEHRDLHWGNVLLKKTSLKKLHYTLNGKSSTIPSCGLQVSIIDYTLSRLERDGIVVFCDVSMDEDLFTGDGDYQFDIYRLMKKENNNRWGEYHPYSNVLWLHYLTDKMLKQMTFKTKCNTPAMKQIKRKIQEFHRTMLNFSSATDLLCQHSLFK
Protocol: (§1) Kinase activities were determined using the ADP-Glo methodology (ADP-Glo Kinase Assay; Promega) according to the assay described by Nguyen et al.[32] except for MmCLK1. The later was assayed in the following buffer: 10 mM MgCl2, 1 mM EGTA, 1 mM DTT, 25 mM Tris-HCl pH 7.5, 50 µg/ml heparin, 0.15 mg/ml BSA, with 0.027 µg/µl of the following peptide: GRSRSRSRSRSR as substrate.

HsCdk5/p25 = HsCdk5/p25 (Homo sapiens, UniProt Q00535); assay: ADP-Glo kinase assay; assay type: biochemical, Homo sapiens (Hs); settings: mean n = 2, % of maximum activity of DMSO control, read-out: % Residual activity at 1 μM CDK5
Sequence of HsCdk5/p25 (Q00535 whole entry): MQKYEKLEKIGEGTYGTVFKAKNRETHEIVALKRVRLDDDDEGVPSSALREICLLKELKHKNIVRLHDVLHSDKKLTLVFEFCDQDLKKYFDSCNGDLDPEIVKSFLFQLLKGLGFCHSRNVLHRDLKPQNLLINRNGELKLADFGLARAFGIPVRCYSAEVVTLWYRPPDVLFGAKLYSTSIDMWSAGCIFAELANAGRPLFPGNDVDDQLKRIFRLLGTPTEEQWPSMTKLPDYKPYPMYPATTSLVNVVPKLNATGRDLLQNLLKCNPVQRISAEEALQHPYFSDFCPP
Sequence of HsCdk5/p25 (Q15078 99-307 partner limits assumed): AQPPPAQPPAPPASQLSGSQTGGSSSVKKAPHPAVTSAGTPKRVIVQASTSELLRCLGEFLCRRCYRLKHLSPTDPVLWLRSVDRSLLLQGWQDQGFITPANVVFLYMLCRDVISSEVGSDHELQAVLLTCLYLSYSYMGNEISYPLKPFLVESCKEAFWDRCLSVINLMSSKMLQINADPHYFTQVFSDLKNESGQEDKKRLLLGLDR
Protocol: as §1

HsCdk2/Cyc A = HsCdk2/Cyc A (Homo sapiens, UniProt P24941); assay: ADP-Glo kinase assay; assay type: biochemical, Homo sapiens (Hs); settings: mean n = 2, % of maximum activity of DMSO control, read-out: % Residual activity at 1 μM CDK2
Protocol: as §1

HsCdk9/Cyc E = HsCdk9/Cyc E (Homo sapiens, UniProt P50750); assay: ADP-Glo kinase assay; assay type: biochemical, Homo sapiens (Hs); settings: mean n = 2, % of maximum activity of DMSO control, read-out: % Residual activity at 1 μM CDK9
Sequence of HsCdk9/Cyc E (P50750 whole entry): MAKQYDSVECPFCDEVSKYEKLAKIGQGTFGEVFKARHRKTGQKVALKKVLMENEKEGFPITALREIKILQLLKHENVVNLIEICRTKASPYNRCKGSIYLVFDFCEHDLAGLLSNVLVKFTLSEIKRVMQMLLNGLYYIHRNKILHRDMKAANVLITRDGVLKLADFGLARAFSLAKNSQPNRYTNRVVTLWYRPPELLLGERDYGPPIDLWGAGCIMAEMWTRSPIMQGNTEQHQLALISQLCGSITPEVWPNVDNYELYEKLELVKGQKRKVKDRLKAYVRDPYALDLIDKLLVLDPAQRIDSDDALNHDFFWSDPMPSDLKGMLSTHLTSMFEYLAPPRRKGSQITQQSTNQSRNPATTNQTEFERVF
Sequence of HsCdk9/Cyc E (O60563 whole entry partner): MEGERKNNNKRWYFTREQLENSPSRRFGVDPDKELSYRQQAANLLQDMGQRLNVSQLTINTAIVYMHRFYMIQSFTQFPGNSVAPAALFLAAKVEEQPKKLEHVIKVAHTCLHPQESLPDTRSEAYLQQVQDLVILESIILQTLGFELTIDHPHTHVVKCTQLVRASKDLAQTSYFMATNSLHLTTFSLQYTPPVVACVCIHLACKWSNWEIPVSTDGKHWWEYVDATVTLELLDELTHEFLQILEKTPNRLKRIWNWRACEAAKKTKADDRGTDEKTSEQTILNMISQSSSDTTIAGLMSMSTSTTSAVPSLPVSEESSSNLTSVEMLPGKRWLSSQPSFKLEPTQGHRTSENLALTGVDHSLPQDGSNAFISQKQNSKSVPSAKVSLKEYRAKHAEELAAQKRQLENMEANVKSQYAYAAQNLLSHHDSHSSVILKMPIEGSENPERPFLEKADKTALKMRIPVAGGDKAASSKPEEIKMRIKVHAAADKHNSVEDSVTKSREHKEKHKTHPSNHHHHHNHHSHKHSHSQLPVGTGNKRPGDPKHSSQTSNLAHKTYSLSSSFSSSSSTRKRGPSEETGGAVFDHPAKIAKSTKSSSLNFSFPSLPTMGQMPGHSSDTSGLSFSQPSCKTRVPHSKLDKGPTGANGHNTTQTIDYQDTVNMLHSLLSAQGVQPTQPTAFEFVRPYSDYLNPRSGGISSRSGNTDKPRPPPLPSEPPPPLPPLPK
Protocol: as §1

HsGSK3β = HsGSK3β (Homo sapiens, UniProt P49841); assay: ADP-Glo kinase assay; assay type: biochemical, Homo sapiens (Hs); settings: mean n = 2, % of maximum activity of DMSO control, read-out: % Residual activity at 1 μM GSK3β
Protocol: as §1

EPHA1 = target: T2, EPHA1 (Homo sapiens, UniProt P21709); assay: SelectScreen ZLYTE; assay type: biochemical; settings: ATP Km, read-out: Percentage of inhibition
T2 construct: purchased Life Technologies
T2 sequence (P21709 26-976): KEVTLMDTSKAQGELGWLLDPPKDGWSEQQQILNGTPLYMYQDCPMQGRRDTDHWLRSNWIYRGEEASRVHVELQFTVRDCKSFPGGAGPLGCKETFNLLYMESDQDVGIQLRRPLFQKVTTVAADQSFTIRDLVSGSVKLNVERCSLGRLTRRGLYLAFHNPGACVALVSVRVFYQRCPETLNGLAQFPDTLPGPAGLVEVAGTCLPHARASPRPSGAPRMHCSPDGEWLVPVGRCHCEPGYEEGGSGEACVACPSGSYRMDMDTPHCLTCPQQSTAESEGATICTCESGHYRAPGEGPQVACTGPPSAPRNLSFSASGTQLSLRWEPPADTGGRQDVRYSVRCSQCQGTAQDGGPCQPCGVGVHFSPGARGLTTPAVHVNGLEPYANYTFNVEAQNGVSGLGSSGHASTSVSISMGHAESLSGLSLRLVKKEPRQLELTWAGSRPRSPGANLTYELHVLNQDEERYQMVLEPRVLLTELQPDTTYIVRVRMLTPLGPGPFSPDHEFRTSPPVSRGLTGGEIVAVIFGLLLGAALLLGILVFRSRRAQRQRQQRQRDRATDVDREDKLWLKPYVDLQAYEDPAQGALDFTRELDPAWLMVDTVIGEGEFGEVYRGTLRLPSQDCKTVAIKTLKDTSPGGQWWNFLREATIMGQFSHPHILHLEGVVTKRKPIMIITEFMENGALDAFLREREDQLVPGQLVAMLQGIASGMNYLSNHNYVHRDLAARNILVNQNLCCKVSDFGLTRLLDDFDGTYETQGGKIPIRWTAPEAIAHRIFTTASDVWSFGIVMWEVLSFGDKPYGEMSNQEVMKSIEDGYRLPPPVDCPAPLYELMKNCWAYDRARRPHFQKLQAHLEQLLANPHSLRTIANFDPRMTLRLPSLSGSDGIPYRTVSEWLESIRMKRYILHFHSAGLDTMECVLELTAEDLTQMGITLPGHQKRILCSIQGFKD
Protocol: (§2) We further evaluated the selectivity profile of compound 55 on a larger panel of kinases (SelectScreen Whole Panel, Life Technologies). The inhibition profile of 55, evaluated at 1 μM, is depicted on a dendrogram on Figure 3 where kinases inhibited by a minimum of 80% are shown. A full list of the kinases tested is shown on Table S1 in supplementary information.

AKT2 (PKB beta) = AKT2 (PKB beta) (Homo sapiens, UniProt P31751); assay: SelectScreen ZLYTE; assay type: biochemical; settings: ATP Km, read-out: Percentage of inhibition
Protocol: as §2

AKT3 (PKB gamma) = target: T3, AKT3 (PKB gamma) (Homo sapiens, UniProt Q9Y243); assay: SelectScreen ZLYTE; assay type: biochemical; settings: ATP Km, read-out: Percentage of inhibition
T3 construct: purchased Life Technologies
Protocol: as §2

BMX = BMX (Homo sapiens, UniProt P51813); assay: SelectScreen ZLYTE; assay type: biochemical; settings: ATP Km, read-out: Percentage of inhibition
Protocol: as §2

RPS6KA6 (RSK4) = target: T4, RPS6KA6 (RSK4) (Homo sapiens, UniProt Q9UK32); assay: SelectScreen ZLYTE; assay type: biochemical; settings: ATP Km, read-out: Percentage of inhibition
T4 construct: purchased Life Technologies
Protocol: as §2

HCK = target: T5, HCK (Homo sapiens, UniProt P08631); assay: SelectScreen ZLYTE; assay type: biochemical; settings: ATP Km, read-out: Percentage of inhibition
T5 construct: purchased Life Technologies
T5 sequence (P08631 whole entry): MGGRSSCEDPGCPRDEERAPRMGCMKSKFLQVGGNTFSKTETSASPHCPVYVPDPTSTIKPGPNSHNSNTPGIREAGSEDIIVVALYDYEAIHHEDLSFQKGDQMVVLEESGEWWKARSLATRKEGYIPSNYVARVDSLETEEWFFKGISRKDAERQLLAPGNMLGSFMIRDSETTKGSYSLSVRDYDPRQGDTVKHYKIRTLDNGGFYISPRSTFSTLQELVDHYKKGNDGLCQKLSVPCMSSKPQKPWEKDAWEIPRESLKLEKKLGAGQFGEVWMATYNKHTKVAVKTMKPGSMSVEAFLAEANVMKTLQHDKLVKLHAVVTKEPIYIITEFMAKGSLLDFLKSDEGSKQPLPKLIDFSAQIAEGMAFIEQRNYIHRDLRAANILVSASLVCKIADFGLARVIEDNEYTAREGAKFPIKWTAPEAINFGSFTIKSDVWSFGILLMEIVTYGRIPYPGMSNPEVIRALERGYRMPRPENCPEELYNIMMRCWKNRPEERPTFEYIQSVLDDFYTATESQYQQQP
Protocol: as §2

EGFR (ErbB1) L861Q = target: T6, EGFR (ErbB1) L861Q (Homo sapiens, UniProt P00533, L861Q); assay: SelectScreen ZLYTE; assay type: biochemical; settings: ATP Km, read-out: Percentage of inhibition
T6 construct: purchased Life Technologies (SelectScreen)
T6 sequence (P00533 25-1210 L861Q): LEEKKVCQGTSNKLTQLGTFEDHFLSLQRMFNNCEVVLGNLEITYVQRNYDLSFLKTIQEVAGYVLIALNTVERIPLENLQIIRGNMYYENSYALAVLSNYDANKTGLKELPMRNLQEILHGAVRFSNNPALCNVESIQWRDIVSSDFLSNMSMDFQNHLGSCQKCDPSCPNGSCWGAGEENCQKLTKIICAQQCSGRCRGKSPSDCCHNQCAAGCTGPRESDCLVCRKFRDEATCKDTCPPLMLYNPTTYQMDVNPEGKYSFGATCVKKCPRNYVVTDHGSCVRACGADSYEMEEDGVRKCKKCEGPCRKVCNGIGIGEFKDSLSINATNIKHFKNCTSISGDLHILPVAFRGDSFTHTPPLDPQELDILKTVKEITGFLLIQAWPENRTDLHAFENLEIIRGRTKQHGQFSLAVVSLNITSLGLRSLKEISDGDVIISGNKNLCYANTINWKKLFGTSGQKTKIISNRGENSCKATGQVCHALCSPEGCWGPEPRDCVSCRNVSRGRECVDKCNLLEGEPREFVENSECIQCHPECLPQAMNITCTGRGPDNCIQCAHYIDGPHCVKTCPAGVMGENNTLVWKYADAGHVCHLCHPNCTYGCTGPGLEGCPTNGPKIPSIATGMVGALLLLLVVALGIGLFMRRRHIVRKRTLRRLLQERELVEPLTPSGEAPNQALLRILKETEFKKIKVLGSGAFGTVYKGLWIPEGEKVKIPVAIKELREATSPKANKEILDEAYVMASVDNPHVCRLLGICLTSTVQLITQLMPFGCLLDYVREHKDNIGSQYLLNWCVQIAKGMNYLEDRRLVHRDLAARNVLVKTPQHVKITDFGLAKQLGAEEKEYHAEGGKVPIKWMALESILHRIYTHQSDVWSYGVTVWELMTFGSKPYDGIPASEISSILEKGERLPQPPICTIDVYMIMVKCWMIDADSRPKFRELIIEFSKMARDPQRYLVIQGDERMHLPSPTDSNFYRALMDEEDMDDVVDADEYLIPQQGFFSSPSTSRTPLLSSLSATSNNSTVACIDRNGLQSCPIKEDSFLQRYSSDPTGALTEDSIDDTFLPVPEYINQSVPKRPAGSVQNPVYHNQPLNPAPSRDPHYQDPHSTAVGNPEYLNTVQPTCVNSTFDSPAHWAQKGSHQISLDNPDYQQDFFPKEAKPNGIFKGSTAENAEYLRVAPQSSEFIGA
Protocol: as §2

MST1R (RON) = MST1R (RON) (Homo sapiens, UniProt Q04912); assay: SelectScreen ZLYTE; assay type: biochemical; settings: ATP Km, read-out: Percentage of inhibition
Protocol: as §2

MAPK8 (JNK1) = target: T7, MAPK8 (JNK1) (Homo sapiens, UniProt P45983); assay: SelectScreen ZLYTE; assay type: biochemical; settings: ATP 10 µM, read-out: Percentage of inhibition
T7 construct: purchased Life Technologies (SelectScreen Whole Panel service)
T7 sequence (P45983 whole entry): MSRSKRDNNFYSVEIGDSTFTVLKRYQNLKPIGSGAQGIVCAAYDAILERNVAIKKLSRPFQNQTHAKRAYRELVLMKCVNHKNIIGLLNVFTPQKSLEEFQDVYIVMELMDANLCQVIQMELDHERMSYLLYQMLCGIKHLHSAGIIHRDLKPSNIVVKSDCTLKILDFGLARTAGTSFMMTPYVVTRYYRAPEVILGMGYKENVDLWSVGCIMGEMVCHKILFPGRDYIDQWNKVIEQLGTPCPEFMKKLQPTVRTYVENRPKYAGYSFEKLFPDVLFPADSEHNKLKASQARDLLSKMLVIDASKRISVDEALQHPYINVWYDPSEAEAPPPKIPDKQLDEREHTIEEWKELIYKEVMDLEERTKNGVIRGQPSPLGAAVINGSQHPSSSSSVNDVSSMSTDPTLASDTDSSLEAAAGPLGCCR
Protocol: as §2

TYK2 = target: T8, TYK2 (Homo sapiens, UniProt P29597); assay: SelectScreen ZLYTE; assay type: biochemical; settings: ATP Km, read-out: Percentage of inhibition
T8 construct: purchased Life Technologies (SelectScreen Whole Panel)
Protocol: as §2

AURKC (Aurora C) = target: T9, AURKC (Aurora C) (Homo sapiens, UniProt Q9UQB9); assay: SelectScreen ZLYTE; assay type: biochemical; settings: ATP Km, read-out: Percentage of inhibition
T9 construct: purchased Life Technologies (SelectScreen Whole Panel service)
T9 sequence (Q9UQB9 whole entry): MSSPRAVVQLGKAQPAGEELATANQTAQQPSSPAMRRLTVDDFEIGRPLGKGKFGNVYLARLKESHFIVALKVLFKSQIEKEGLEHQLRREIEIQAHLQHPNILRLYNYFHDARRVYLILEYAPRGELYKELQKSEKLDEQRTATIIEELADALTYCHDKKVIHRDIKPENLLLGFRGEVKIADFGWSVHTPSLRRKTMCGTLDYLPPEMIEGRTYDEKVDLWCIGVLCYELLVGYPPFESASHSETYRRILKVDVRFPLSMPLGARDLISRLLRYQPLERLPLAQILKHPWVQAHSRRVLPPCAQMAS
Protocol: as §2

MELK = MELK (Homo sapiens, UniProt Q14680); assay: SelectScreen ZLYTE; assay type: biochemical; settings: ATP Km, read-out: Percentage of inhibition
Protocol: as §2

JAK2 = target: T10, JAK2 (Homo sapiens, UniProt O60674); assay: SelectScreen ZLYTE; assay type: biochemical; settings: ATP Km, read-out: Percentage of inhibition
T10 construct: purchased Life Technologies (SelectScreen Whole Panel)
Protocol: as §2

RPS6KA2 (RSK3) = target: T11, RPS6KA2 (RSK3) (Homo sapiens, UniProt Q15349); assay: SelectScreen ZLYTE; assay type: biochemical; settings: ATP Km, read-out: Percentage of inhibition
T11 construct: purchased Life Technologies (SelectScreen service)
Protocol: as §2

RET V804L = target: T12, RET V804L (Homo sapiens, UniProt P07949, V804L); assay: SelectScreen ZLYTE; assay type: biochemical; settings: ATP Km, read-out: Percentage of inhibition
T12 construct: purchased Life Technologies
Protocol: as §2

ERBB4 (HER4) = ERBB4 (HER4) (Homo sapiens, UniProt Q15303); assay: SelectScreen ZLYTE; assay type: biochemical; settings: ATP Km, read-out: Percentage of inhibition
Protocol: as §2

TBK1 = target: T13, TBK1 (Homo sapiens, UniProt Q9UHD2); assay: SelectScreen ZLYTE; assay type: biochemical; settings: ATP Km, read-out: Percentage of inhibition
T13 construct: purchased Life Technologies (SelectScreen Whole Panel service)
Protocol: as §2

COc1ccc2[nH]c3c(=O)[nH]c4ccc(O)cc4c3c2c1 [Compound 55, 2-Hydroxy-10-methoxy-5,7-dihydro-6H-indolo[2,3-c]quinolin-6-one] gave a remaining activity at 1 µM (HsHaspin; 1 μM, mean n = 2, % of maximum activity of DMSO control, read-out: % Residual activity at 1 μM Haspin) of 0%, an IC50 (HsHaspin; dose-response curve, each point in duplicate, read-out: Kinase inhibition (IC50) Haspin) of 2 nM and a remaining activity at 1 µM (HsCdk5/p25) of 53%. The remaining activity at 1 µM (HsCdk2/Cyc A) was 38%, the remaining activity at 1 µM (HsCdk9/Cyc E) was 17% and the remaining activity at 1 µM (HsGSK3β) was 20%. It also gave an inhibition at 1 µM (EPHA1) of 33%, an inhibition at 1 µM (AKT2 (PKB beta)) of 6% and an inhibition at 1 µM (AKT3 (PKB gamma)) of 3%. For the same compound, the inhibition at 1 µM (BMX) was 14%, the inhibition at 1 µM (RPS6KA6 (RSK4)) was 93% and the inhibition at 1 µM (HCK) was 38%. It also gave an inhibition at 1 µM (EGFR (ErbB1) L861Q) of 9%, an inhibition at 1 µM (MST1R (RON)) of 6% and an inhibition at 1 µM (MAPK8 (JNK1)) of 15%. It also gave an inhibition at 1 µM (TYK2) of 51%, an inhibition at 1 µM (AURKC (Aurora C)) of 17% and an inhibition at 1 µM (MELK) of 57%. For the same compound, the inhibition at 1 µM (JAK2) was 54%, the inhibition at 1 µM (RPS6KA2 (RSK3)) was 88% and the inhibition at 1 µM (RET V804L) was 98%. The inhibition at 1 µM (ERBB4 (HER4)) was 20% and the inhibition at 1 µM (TBK1) was 49%.
